These results are taken from patent publication US6537522B1, “Neuroprobes for mapping monoamine reuptake sites” (Amersham PLC, priority 1992, dated 2003).

The structures appear in SMILES notation. Where two headings read alike, the source gives them in different places.

The target in data set [1] is T1, NET (norepinephrine transporter) (Rattus norvegicus, UniProt Q63380).
T1 construct: or frontoparietal cerebral cortex (for 5-HTT and NET); from tissue; host or cells: rat brain frontoparietal cerebral cortex, crude membrane fraction
T1 sequence (Q63380 1-617): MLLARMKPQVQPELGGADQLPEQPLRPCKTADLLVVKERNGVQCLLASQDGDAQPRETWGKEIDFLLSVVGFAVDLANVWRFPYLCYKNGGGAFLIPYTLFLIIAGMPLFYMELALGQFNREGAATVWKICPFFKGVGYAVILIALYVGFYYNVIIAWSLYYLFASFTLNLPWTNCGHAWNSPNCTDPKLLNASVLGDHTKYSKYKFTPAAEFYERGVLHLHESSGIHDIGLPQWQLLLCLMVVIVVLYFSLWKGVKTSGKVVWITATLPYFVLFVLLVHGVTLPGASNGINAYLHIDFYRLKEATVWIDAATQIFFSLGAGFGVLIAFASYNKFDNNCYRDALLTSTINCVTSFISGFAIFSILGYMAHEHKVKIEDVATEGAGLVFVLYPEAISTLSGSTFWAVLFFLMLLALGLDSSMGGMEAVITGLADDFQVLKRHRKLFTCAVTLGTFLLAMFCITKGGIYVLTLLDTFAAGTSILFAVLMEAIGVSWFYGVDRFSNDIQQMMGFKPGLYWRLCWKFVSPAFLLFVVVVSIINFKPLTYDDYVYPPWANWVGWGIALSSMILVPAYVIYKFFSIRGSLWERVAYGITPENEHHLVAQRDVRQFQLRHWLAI
Put plainly: NET assay, [3H]nisoxetine binding, rat frontoparietal cerebral cortex membranes. The protocol: (§1) N-phthalimidopropyl-β-CIT (see Example 10) was analyzed as follows. Stock solutions (1 mM) of test agents were made in 95% ethanol/DMSO (1/1, v/v) and stored at −5° C. until used by diluting in a large excess of each assay buffer. Agents are tested at six concentrations in duplicate, with a crude membrane fraction of homogenates of rat brain corpus striatum (for DAT assays) in Tris-citrate buffer (pH 7.4) containing Na^+ ([…]) and Mg^2+ (4 mM) or frontoparietal cerebral cortex (for 5-HTT and NET) in 50 mM Tris-HCl buffer (pH 7.4) containing Na^+ ([…]) and K^+ (5 mM) following methods reported by Neumeyer et al., J. Med. Chem. 37, 1558-1561 (1991), the whole of which is incorporated by reference herein.

Data set [2] has as its target T2, DAT (dopamine transporter) (Rattus norvegicus, UniProt P23977).
T2 construct: a crude membrane fraction of homogenates of rat brain corpus striatum (for DAT assays); from tissue; host or cells: rat brain corpus striatum, crude membrane fraction
Put plainly: DAT assay, [3H]GBR-12935 binding, rat brain corpus striatum membranes. The settings on record: for selectivity: DAT vs 5-HTT / selectivity: DAT vs NET: ratio of Ki values. As for the experimental part: as §1

Another data set concerns the target T3, 5-HTT (5-HT transporter) (Rattus norvegicus, UniProt P31652).
T3 construct: or frontoparietal cerebral cortex (for 5-HTT and NET); from tissue; host or cells: rat brain frontoparietal cerebral cortex, crude membrane fraction
Kind of data set: 5-HTT assay, [3H]paroxetine binding, rat frontoparietal cerebral cortex membranes. As for the experimental part:
as §1

Data set [3] relates to dopamine and serotonin reuptake sites. The conditions noted are these: 3 μmol/kg IV at 200 min pi, during 100 min after injection.
Procedure: With reference to FIG. 4, five SPECT (single photon emission computer tomography) experiments were performed with four female baboons (Papio anubis, 10-12 kg) under isoflurane anesthesia. […] Serial 1-2 min images were reconstructed assuming uniform attenuation equal to that of water in an ellipse drawn around the brain. Data were decay corrected to time of injection.
Activity is expressed in arbitrary units known from phantom studies to be linear with radioactive concentrations.
For data set [4] the test system is unchanged. Put plainly: SPECT regional brain activity after i.v. [123I]-β-CIT (five experiments). It counts as in vivo, baboon (Papio anubis). From the text: Data were decay corrected to time of injection.
Data set [5] can be described thus: whole body scanning, thyroid uptake (in vivo deiodination). The conditions noted are these: indicative of slow in vivo deiodination. From the text:
The majority of striatal activity was associated with dopamine reuptake sites, and the majority of midbrain activity was associated with serotonin reuptake sites, which is consistent with the densities of these monoamine transporters measured in postmortem primate brains. Brain washout of activity was relatively slow, in part because of the high affinities of β-CIT for the monoamine transporters.

Data set [6] relates to dopamine and serotonin reuptake sites. Kind of data set: SPECT regional brain activity after injection of [123I]-β-CIT (six experiments). It counts as in vivo, baboon (Papio anubis). As for the experimental part:
The final product was formulated in 6 ml sterile saline containing 5-10% ethanol.
Data were decay-corrected to the time of injection.
The highest activities were found in the striatal region and reached peak levels at 179±9 min (n=6) post injection (p.i.) (FIG. 2). Striatal activity was monitored in two animals for an additional 190 and […] post peak values.

Data set [7] shares this test system. The conditions noted are these: within 60-120 min. The protocol:
Six SPECT experiments were performed in four female baboons (10 kg Papio anubis) under isoflurane anesthesia. […] Data were decay-corrected to the time of injection.

For the next data set, the target named is dopamine reuptake sites (Papio anubis, UniProt A0A096MN61). Kind of data set: displacement of [3H]CFT binding in primate striatum tissue homogenates. Details: species or system baboon. The settings on record: mean ± SEM (n). The text has this:
Values represent means±SEM (of n experiments).
For orientation: Loss of bound radioactivity is the signal in a displacement assay; it reports binding, not function.

A further data set concerns the target T4, serotonin reuptake sites (Rattus norvegicus, UniProt P31652).
T4 construct: homogenates prepared from rat cortical membranes; from tissue; host or cells: rat cortical membranes
Kind of data set: displacement of [3H]paroxetine binding in rat cortical membrane homogenates. The settings on record: for displacement of [3H]paroxetine Hill slope (nH): mean ± SEM (n).

[8] abbreviates: at time of peak striatal uptake, n=6.
Where [9] appears, read: 0.4 μmol/kg i.v. at 180 min p.i.

Sequence of dopamine reuptake sites (A0A096MN61 1-620): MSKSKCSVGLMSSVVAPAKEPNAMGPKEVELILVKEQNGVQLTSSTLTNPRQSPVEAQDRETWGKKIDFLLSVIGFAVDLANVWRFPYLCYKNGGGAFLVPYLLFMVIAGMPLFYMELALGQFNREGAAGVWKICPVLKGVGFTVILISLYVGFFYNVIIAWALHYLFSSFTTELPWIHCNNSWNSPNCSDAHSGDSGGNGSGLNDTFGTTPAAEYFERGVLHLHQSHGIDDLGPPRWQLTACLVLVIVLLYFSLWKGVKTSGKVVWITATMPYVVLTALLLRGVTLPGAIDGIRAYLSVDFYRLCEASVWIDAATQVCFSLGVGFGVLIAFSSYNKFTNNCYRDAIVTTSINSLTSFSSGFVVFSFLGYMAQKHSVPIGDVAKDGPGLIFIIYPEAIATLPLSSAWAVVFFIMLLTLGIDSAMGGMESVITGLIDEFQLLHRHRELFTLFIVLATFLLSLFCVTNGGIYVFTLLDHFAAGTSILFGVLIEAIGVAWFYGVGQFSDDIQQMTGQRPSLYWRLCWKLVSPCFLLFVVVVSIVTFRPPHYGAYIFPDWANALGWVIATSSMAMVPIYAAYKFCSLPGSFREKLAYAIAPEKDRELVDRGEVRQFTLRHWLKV
T3 sequence (P31652 whole entry): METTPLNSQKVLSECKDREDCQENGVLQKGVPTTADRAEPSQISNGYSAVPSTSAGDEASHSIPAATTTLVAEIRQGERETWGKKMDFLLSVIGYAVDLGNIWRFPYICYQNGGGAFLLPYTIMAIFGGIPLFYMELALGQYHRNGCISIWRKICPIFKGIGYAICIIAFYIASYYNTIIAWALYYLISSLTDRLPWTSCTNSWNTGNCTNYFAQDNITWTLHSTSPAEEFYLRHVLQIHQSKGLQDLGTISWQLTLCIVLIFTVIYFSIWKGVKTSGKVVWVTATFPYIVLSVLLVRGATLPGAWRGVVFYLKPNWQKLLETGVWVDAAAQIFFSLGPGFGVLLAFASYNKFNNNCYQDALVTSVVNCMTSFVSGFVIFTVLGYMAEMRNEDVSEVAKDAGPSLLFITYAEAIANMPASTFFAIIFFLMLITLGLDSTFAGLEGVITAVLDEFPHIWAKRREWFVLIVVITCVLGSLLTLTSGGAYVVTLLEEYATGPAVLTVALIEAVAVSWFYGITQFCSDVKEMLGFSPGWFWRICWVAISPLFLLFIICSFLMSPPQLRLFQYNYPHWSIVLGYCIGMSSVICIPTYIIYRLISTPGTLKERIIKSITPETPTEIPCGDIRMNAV
T4 sequence (P31652 whole entry): as above
T2 sequence (P23977 whole entry): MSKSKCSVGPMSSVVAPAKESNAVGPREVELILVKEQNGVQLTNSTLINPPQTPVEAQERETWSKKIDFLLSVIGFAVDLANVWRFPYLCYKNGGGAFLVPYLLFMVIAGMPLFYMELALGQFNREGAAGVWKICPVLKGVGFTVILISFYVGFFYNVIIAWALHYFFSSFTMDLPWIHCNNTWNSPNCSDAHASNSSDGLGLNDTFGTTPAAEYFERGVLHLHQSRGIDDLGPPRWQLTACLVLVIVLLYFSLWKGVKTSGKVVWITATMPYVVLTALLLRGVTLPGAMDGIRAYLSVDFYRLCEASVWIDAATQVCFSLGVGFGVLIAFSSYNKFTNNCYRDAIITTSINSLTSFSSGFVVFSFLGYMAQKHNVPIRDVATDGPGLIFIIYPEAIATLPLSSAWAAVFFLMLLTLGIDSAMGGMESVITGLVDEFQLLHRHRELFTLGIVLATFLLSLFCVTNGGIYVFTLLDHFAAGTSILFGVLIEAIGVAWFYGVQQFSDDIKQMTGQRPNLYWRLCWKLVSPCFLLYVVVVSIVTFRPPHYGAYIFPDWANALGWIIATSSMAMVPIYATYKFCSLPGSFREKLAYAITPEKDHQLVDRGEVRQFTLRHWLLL

Regarding `COC(=O)[C@H]1[C@@H](c2ccc(I)cc2)C[C@@H]2CC[C@H]1N2CCCN1C(=O)c2ccccc2C1=O` [Example 10, N-phthalimidopropyl-β-CIT], the Ki in data set [1] ([3H]nisoxetine 0.8 nM, rat cerebral cortex, 180 min 4° C., read-out: affinity (Ki) NET) was 73.7 ± 11.6 nM; in data set [2] ([3H]GBR-12935 0.4 nM, rat corpus striatum, 45 min 4° C., read-out: affinity (Ki) DAT), 9.1 ± 1.1 nM; at 5-HTT (5-HT transporter) ([3H]paroxetine 0.2 nM, rat cerebral cortex, 60 min 20° C., read-out: affinity (Ki) 5-HTT), 0.59 ± 0.07 nM. Further, the “selectivity: DAT vs 5-HTT” value in data set [2] is listed as 0.065. Moreover, in data set [2], the “selectivity: DAT vs NET” value is on record as 8.10.

With `CNC1CC(c2ccc(Cl)c(Cl)c2)c2ccccc21` (stereo not drawn) [Lu 19-005, indatraline], the “decrease of striatal [123I]-β-CIT activity” value in [3] was found to be 65%.

As to `COC(=O)C1C(c2ccc([123I])cc2)CC2CCC1N2C` (stereo not drawn) [[^123I]-β-CIT, [^123I]-2-β-Carbomethoxy-3-β-(4-iodophenyl)tropane], the “striatal to cerebellar ratio” value in data set [4] (at time of striatal peak) was 9.8±1.6. Also, in [4] (control animal followed an additional 200 min), the “decrease of striatal activity from striatal peak to end of experiment” value is on record as 0%. Also, the “decrease of striatal activity from striatal peak to end of experiment” value in [4] (control animal followed an additional 260 min) is 12%. Moreover, in data set [4] (midbrain, n=5), the “time of peak midbrain levels pi” value turned out to be 43 ± 5 min. In addition, the “time of peak striatal uptake postinjection” value in data set [4] (striatal region, mean ± SEM) stood at 154 ± 19 min. Also, the thyroid uptake result in [5] was “low”. For the same compound, in data set [6] (setting [8]), the “ratio of regional brain activity, cerebellum (striatum 100%)” value is 10.0±1.5%; the “ratio of regional brain activity, frontal lobe (striatum 100%)” value is recorded as 10.3±1.0%; the “ratio of regional brain activity, hypothalamus (striatum 100%)” value came out at 38.1±5.2%; the “ratio of regional brain activity, occipital lobe (striatum 100%)” value stood at 13.5±0.8%. In data set [6] (setting [8]), the “ratio of regional brain activity, temporo-parietal lobes (striatum 100%)” value was determined as 14.3±2.0%. In data set [6] (midbrain, n=3), the “washout of midbrain activity t½” value is 4.9 ± 0.983 h. The “time of peak midbrain activity post injection” value in data set [6] (midbrain, n=6) was 45 ± 16 min. For the same compound, in data set [6] (one animal, remaining 190 min of the experiment), the “striatal activity after peak” value is listed as “virtually unchanged”. In addition, the “washout of striatal activity t½” value in data set [6] (second animal, exponential fit, r=0.92) was determined as 27 h. Further, in data set [6] (striatum, n=6, mean ± S.E.M.), the “time of peak striatal activity post injection” value was 179 ± 9 min.

`COC(=O)[C@H]1[C@@H](c2ccc(F)cc2)C[C@@H]2CC[C@H]1N2C` [compound 2, 2β-carbomethoxy-3β-(4-fluorophenyl)tropane, reference compound] registered a Ki in [1] of 635 ± 110 nM. In addition, in [7] (setting [9]), the “displacement of midbrain [123I]-β-CIT levels” value amounted to 72% and the “displacement of striatal [123I]-β-CIT levels” value is listed as 57%. Further, in data set [7] (2.0 μmol/kg at 298 min p.i.), the “cumulative displacement of midbrain [123I]-β-CIT levels” value is 91% and the “cumulative displacement of striatal [123I]-β-CIT levels” value was 83%. For the same compound, the “displacement of [3H]CFT Hill slope (nH)” value at dopamine reuptake sites is reported as 0.75 ± 0.01 (3). In addition, affinity on 5-HTT (5-HT transporter) was put at a Ki of 181 ± 21 nM. In addition, at serotonin reuptake sites, the 50% inhibitory concentration (IC50) amounted to 479 ± 59 nM. Moreover, at serotonin reuptake sites (rat cortical membranes), the “displacement of [3H]paroxetine Hill slope (nH)” value was 1.34 ± 0.22 (3).

Regarding `COC(=O)[C@H]1[C@@H](c2ccc(I)cc2)C[C@@H]2CC[C@H]1N2C` [compound 3a, 2β-carbomethoxy-3β-(4-iodophenyl)tropane], the Ki in [1] stood at 2.8 ± 0.4 nM. The “displacement of [3H]CFT Hill slope (nH)” value on dopamine reuptake sites is 0.79 ± 0.04 (3). Besides, in [2], the Ki turned out to be 1.4 ± 0.2 nM, the “selectivity: DAT vs 5-HTT” value is reported as 0.320 and the “selectivity: DAT vs NET” value was 2.00. Besides, the Ki on 5-HTT (5-HT transporter) turned out to be 0.46 ± 0.06 nM. This compound also gave an IC50 on serotonin reuptake sites of 3.78 ± 0.53 nM. Moreover, at serotonin reuptake sites (rat cortical membranes), the “displacement of [3H]paroxetine Hill slope (nH)” value is given as 0.82 ± 0.08 (6).

On to `COC(=O)C1C(c2ccc(I)cc2)CC2CCC1N2C` (stereo not drawn) [compound 3b, 2-α-Carbomethoxy-3-β-iodophenyltropane], for which, at dopamine reuptake sites, the “displacement of [3H]CFT Hill slope (nH)” value was 0.70 ± 0.07 (2). Besides, the “displacement of [3H]paroxetine Hill slope (nH)” value on serotonin reuptake sites (rat cortical membranes) was 0.73 ± 0.04 (2). Also, the IC50 at serotonin reuptake sites (rat cortical membranes, mean ± SEM, read-out: displacement of [3H]paroxetine IC50) worked out at 210 ± 86 nM.

As usually defined, the Ki is the equilibrium dissociation constant of an inhibitor or competing ligand from its target. For orientation: IC50 means the midpoint of a concentration-inhibition curve.
